Results reported in the supplement of paper PMC12463676, “Small-molecule dissolution of stress granules by redox modulation benefits ALS models” (Nature Chemical Biology, 2025).

Tests used:
lipoamide = compound: NC(=O)CCCCC1CCSS1 [lipoamide]; assay: thermal stability z-score vs DMSO; higher = more thermally stabilized by treatment; conditions: HeLa, lipoamide concentration 100 µM
Procedure: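 Cellular thermal proteome profiling in HeLa cells. Cells were treated with 100 µM lipoamide for 1 h, with or without 1 mM arsenate for a further 1 h, then heated to ten temperatures (37-66.3 °C), and soluble protein was quantified by TMT mass spectrometry relative to 0.1% DMSO controls. The thermal stability score (sum of log2 fold changes minus the abundance score) was transformed to a z-score; mean of n = 3 experiments.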

potassium arsenate = compound: O=[As]([O-])(O)O.[K+] [potassium arsenate]; assay: as above; conditions: HeLa; arsenate concentration 1 mM
Procedure: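 Cellular thermal proteome profiling in HeLa cells treated with 1 mM arsenate for 1 h (DMSO pretreatment), heated to ten temperatures (37-66.3 °C). Soluble protein was quantified by TMT mass spectrometry relative to DMSO controls; the thermal stability score was transformed to a z-score; mean of n = 3 experiments.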

[1] = arsenate co-treatment: 1 mM arsenate 1 h
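Note: each temperature applied for 3 min, abundance score taken as mean log2 fold change at the two lowest temperatures, z-score obtained by mean subtraction and division by SD.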

Chain of UniProt P51649 (P51649 whole entry): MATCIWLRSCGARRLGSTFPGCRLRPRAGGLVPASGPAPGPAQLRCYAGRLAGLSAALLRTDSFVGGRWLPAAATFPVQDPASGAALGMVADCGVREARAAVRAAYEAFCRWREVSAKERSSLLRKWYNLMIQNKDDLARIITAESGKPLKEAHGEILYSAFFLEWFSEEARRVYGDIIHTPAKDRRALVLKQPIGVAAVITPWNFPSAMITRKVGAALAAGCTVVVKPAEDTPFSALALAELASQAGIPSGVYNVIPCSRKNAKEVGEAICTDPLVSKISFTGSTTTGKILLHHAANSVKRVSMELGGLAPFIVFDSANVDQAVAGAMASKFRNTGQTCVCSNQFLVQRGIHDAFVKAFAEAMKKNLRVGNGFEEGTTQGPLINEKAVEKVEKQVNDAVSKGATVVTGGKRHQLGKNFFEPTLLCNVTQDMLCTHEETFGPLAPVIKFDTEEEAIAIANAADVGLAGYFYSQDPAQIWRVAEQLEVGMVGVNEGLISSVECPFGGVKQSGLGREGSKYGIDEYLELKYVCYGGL
Chain of UniProt P09972 (P09972 whole entry): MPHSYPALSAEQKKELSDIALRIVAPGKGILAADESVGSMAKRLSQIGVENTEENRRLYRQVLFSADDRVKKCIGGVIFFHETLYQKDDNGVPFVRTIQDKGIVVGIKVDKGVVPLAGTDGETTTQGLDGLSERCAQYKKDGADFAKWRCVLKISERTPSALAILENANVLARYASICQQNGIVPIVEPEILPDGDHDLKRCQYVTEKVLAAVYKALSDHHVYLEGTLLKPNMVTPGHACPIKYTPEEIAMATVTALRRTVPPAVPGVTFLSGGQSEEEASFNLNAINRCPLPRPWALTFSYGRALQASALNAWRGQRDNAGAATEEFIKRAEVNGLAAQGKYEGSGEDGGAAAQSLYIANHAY
Chain of UniProt P43353 (P43353 whole entry): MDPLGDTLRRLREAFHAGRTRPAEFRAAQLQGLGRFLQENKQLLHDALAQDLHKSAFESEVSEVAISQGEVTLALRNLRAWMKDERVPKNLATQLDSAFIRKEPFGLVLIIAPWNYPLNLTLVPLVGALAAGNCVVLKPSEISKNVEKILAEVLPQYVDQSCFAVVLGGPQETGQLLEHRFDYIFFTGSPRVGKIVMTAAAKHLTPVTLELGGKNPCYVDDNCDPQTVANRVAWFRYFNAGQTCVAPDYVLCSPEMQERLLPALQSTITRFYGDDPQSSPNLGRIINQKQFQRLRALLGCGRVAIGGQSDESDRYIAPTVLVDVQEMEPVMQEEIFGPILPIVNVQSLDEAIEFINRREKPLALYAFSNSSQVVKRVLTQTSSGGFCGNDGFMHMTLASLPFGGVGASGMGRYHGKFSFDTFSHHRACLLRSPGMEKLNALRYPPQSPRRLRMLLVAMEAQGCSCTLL
Chain of UniProt P30837 (P30837 whole entry): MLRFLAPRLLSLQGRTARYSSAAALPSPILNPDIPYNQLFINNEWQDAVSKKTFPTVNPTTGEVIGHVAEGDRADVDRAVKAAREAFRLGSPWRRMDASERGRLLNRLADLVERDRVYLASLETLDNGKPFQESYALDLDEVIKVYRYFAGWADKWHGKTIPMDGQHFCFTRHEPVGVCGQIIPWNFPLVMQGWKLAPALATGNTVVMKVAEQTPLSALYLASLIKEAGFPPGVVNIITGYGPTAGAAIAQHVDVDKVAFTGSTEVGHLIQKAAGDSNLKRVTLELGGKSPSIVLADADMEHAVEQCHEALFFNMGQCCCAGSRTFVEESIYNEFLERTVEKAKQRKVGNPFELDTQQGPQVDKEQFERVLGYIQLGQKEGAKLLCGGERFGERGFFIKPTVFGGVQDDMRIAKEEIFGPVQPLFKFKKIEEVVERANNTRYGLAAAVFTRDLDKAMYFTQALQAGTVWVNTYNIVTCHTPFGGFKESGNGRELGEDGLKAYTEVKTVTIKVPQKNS
Chain of UniProt P31749 (P31749 whole entry): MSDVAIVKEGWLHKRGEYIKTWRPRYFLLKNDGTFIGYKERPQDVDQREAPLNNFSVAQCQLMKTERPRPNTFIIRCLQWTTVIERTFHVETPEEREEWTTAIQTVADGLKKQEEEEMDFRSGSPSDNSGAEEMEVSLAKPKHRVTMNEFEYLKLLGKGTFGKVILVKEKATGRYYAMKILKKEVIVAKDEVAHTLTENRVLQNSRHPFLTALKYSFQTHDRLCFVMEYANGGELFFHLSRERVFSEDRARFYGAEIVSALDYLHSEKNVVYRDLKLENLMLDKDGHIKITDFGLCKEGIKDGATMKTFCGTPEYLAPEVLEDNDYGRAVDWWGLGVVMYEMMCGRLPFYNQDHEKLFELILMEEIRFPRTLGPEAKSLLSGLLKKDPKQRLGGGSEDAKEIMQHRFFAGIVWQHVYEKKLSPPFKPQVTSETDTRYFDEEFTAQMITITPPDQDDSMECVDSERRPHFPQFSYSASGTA
Chain of UniProt Q3SY69 (Q3SY69 whole entry): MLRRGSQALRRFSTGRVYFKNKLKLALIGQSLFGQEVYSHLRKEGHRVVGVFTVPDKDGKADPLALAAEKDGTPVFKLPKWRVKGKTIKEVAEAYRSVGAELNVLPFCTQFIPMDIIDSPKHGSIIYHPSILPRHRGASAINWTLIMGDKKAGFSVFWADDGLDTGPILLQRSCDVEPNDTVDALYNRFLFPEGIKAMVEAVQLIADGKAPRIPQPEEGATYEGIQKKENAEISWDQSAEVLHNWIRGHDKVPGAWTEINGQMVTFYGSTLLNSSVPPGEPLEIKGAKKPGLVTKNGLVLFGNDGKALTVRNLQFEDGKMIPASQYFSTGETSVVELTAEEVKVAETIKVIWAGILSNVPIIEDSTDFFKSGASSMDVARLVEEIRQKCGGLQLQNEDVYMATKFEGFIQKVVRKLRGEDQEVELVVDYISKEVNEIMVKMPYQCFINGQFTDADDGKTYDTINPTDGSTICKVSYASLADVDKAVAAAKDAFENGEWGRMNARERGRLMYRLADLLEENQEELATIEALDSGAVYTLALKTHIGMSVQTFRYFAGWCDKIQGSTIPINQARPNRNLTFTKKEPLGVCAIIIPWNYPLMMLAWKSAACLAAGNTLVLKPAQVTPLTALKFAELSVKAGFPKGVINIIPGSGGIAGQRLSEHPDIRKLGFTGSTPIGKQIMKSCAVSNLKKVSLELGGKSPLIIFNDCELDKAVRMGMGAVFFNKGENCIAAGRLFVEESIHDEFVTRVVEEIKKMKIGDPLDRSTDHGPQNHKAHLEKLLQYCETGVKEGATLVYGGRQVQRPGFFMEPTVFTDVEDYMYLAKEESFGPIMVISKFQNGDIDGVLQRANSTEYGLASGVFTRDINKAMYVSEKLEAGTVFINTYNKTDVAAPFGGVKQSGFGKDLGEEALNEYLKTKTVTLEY
Chain of UniProt P04075 (P04075 whole entry): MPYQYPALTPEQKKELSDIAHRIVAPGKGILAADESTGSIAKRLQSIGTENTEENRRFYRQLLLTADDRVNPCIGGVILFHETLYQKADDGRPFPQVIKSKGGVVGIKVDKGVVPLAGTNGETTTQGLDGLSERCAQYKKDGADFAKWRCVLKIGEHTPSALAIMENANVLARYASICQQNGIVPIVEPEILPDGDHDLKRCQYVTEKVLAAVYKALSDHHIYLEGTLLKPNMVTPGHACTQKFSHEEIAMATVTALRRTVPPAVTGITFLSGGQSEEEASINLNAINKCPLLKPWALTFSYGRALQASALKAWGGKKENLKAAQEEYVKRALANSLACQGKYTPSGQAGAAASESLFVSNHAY
Chain of UniProt Q96F25 (Q96F25 whole entry): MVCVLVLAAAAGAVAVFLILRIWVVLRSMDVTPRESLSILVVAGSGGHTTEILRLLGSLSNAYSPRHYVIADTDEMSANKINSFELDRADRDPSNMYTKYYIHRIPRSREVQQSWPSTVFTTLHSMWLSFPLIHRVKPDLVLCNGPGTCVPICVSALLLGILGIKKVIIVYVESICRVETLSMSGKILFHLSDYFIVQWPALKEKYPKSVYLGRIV
Chain of UniProt P13196 (P13196 whole entry): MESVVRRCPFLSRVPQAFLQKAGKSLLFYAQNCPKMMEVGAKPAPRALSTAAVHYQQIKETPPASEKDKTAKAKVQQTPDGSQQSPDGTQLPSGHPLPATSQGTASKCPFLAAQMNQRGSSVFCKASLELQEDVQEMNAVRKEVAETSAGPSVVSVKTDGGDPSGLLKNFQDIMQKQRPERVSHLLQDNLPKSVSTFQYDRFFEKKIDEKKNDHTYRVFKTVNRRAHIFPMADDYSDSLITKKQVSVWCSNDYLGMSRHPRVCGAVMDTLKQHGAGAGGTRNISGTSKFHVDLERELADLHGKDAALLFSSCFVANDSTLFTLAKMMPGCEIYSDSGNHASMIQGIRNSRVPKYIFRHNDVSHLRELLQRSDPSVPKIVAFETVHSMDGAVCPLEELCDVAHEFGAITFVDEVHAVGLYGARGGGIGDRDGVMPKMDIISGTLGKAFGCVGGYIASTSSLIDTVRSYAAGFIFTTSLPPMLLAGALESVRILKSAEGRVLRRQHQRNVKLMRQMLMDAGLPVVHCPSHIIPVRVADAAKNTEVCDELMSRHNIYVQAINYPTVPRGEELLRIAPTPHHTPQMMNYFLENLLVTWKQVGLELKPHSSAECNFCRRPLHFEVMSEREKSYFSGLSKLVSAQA
Chain of UniProt Q6P6C2 (Q6P6C2 whole entry, looked up): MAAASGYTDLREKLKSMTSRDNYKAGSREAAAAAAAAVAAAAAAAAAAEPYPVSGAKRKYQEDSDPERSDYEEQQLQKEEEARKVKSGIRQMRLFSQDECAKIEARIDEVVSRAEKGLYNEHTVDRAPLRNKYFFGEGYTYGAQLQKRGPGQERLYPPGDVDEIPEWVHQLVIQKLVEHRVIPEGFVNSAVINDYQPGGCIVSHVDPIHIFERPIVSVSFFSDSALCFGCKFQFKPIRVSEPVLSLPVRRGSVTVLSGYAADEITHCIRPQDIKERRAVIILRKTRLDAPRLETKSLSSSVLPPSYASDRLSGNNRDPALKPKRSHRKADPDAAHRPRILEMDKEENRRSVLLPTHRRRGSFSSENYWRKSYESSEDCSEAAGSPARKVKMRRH

Target	thermal stability z-score (lipoamide; [1])	thermal stability z-score (lipoamide; arsenate co-treatment: none)	thermal stability z-score (potassium arsenate)
AK1 (UniProt P00568)	-0.242	0.28	-0.267
AK2 (UniProt P54819)	-0.717	-0.168	-0.84
AK3 (UniProt Q9UIJ7)	-0.869	-1	-1.11
AK4 (UniProt P27144)	0.119	0.256	-0.724
AK6 (UniProt Q9Y3D8)	-0.665	-0.877	-2.09
AKAP1 (UniProt Q92667)	0.866	0.652	0.73
AKAP2	1.28	0.638	-0.839
AKAP8 (UniProt O43823)	0.701	-0.426	-0.946
AKAP8L (UniProt Q9ULX6)	0.0418	-0.0231	-0.163
AKAP9 (UniProt Q99996)	0.757	1.46	1.18
AKAP10 (UniProt O43572)	-0.128	-0.105	-0.229
AKAP11 (UniProt Q9UKA4)	0.0955	0.0515	-0.0869
AKAP13 (UniProt Q12802)	-0.125	-0.1	0.667
AKIRIN2 (UniProt Q53H80)	0.0163	-0.00376	0.307
AKR1A1 (UniProt P14550)	0.441	-0.302	-0.0811
AKR1B1 (UniProt P15121)	0.596	0.698	1.19
AKR7A2 (UniProt O43488)	0.2	-0.0291	0.581
AKT1 (UniProt P31749)	-0.698	-0.638	-1.01
AKT1S1 (UniProt Q96B36)	-0.0956	-0.229	-0.504
AKT2 (UniProt P31751)	0.466	-0.00865	-0.0952
ALAD (UniProt P13716)	0.313	0.885	0.112
ALAS1 (UniProt P13196)	0.0114	-0.0767	-0.0697
ALCAM (UniProt Q13740)	0.558	0.931	0.534
ALDH1A3 (UniProt P47895)	0.622	0.25	-0.284
ALDH1B1 (UniProt P30837)	1.12	0.881	-1.44
ALDH1L2 (UniProt Q3SY69)	-0.223	0.327	0.559
ALDH3A2 (UniProt P51648)	1.63	1.32	0.0815
ALDH3B1 (UniProt P43353)	-0.215	0.338	1.26

Target	thermal stability z-score (lipoamide; [1])	thermal stability z-score (lipoamide; arsenate co-treatment: none)	thermal stability z-score (potassium arsenate)
ALDH4A1 (UniProt P30038)	-0.59	-0.14	1.19
ALDH5A1 (UniProt P51649)	0.0808	-0.136	0.302
ALDH6A1 (UniProt Q02252)	-0.315	0.458	4.94
ALDH7A1 (UniProt P49419)	1.36	0.584	0.994
ALDH9A1 (UniProt P49189)	-0.257	-0.212	-1.15
ALDH16A1 (UniProt Q8IZ83)	-0.127	-0.311	-0.784
ALDH18A1 (UniProt P54886)	-0.0576	0.0663	-1.34
ALDOA (UniProt P04075)	0.281	0.0525	-0.488
ALDOC (UniProt P09972)	-0.284	-0.526	-0.67
ALG1 (UniProt Q9BT22)	-0.337	0.0286	0.115
ALG2 (UniProt Q9H553)	-1.02	-1.3	-0.992
ALG3 (UniProt Q92685)	-0.0793	-0.236	0.141
ALG5 (UniProt Q9Y673)	0.39	-0.1	0.347
ALG6 (UniProt Q9Y672)	0.3	0.171	-0.233
ALG8 (UniProt Q9BVK2)	0.425	-0.262	0.491
ALG10|ALG10B	0.489	-0.122	-0.0103
ALG11 (UniProt Q2TAA5)	0.266	-0.15	0.806
ALG13 (UniProt Q9NP73)	0.336	0.571	-0.739
ALG14 (UniProt Q96F25)	-0.0836	-0.394	-0.257
ALKBH1 (UniProt Q13686)	0.0966	0.171	0.295
ALKBH2 (UniProt Q6NS38)	0.407	0.149	1.45
ALKBH4 (UniProt Q9NXW9)	0.0364	0.0782	-0.163
ALKBH5 (UniProt Q6P6C2)	1.79	-0.205	2.96
ALKBH6 (UniProt Q3KRA9)	0.205	0.0821	3.15
ALYREF (UniProt Q86V81)	0.585	0.0941	-0.0562
AMACR (UniProt Q9UHK6)	0.683	-0.138	0.504
AMBRA1 (UniProt Q9C0C7)	0.0433	0.0956	0.446
